Publication PMC9322565 (Chemmedchem, 2022)
Where two headings read alike, the source gives them in different places.

Experiments:
[1] = tested on: L. donovani 9515 promastigotes; assay: Antipromastigote assay (resazurin); type: cell-based, Leishmania donovani; details: for IC50: Leishmania donovani, read-out: Antipromastigote activity, IC50 ±SD, 9515
Procedure: (§1) Antipromastigote assay: The antipromastigote activity of synthesized compounds was evaluated as described previously by […] al.[47] using L. donovani 9515 (MHOM/IN/95/9515) and L. major IR-173 (MHOM/IR/-173). […] Al dri c h) […] The prom astigotes were […] 25 °C. […] Therm ofisher Scientific) in the presence of: […] com pounds for IC50 determination. […] blank. […] Em etine served as the standard cytotoxic drug. […] References […]

[2] = tested on: L. donovani 9515 amastigotes; assay: Anti‐amastigote assay, intramacrophage (THP‐1), resazurin; type: cell-based, Leishmania donovani; details: for IC50: Leishmania donovani, THP-1, L. donovani 9515 intramacrophage amastigotes, read-out: Anti‐amastigote activity, IC50 ±SD, 9515; for fold selective antiparasitic action against L. donovani amastigote in the presence of mammalian cells: HEK‐293 and THP‐1; for fold higher potency than the NF antibiotics: L. donovani amastigote; for fold more specificity for donovani amastigote than AMB: comparison of SpI2 values vs. AMB 0.4; for Selectivity index SI2: L. donovani 9515: IC50 HEK‐293/IC50 amastigote; for Specificity index SpI2: L. donovani 9515: IC50 promastigote/IC50 amastigote; for Selectivity index SI4: L. donovani 9515: IC50 THP‐1/IC50 amastigote
Procedure: (§2) For the anti‐amastigote assay, differentiated plates were carefully washed with PBS, followed by the addition of 200 μL of stationary phase promastigotes in RPMI 1640 medium with 2 % FBS. An MOI of 30 : 1 was used for all three Leishmania strains. […] The treated plates were incubated for 72 hours. After incubation, the plates were gently washed three times with PBS to remove any remaining extracellular parasites. The wells were then treated with 20 μL of 0.05 % sodium dodecyl sulphate in PBS for 30 seconds to lyse the host macrophages. Lysis was terminated by adding 180 μL promastigote growth medium with 10 % FBS. […] Absorbance measurements, calculations and IC50 determinations were performed as described for the antipromastigote assay (Supporting Information).

[3] = tested on: L. major IR‐173 amastigotes; assay: as above; type: cell-based, Leishmania major; details: for IC50: read-out: Anti‐amastigote activity, IC50 ±SD, IR‐173; for Selectivity index SI1: L. major IR‐173: IC50 HEK‐293/IC50 amastigote; for Selectivity index SI3: L. major IR‐173: IC50 THP‐1/IC50 amastigote; for Specificity index SpI1: L. major IR‐173: IC50 promastigote/IC50 amastigote
Procedure: as §2

[4] = tested on: L. major IR‐173 promastigotes; assay: Antipromastigote assay (resazurin); type: cell-based; details: Leishmania major, read-out: Antipromastigote activity, IC50 ±SD, IR‐173
Procedure: as §1

[5] = Macrophage toxicity, resazurin assay; type: cell-based; details: human, differentiated THP‐1 macrophages, read-out: Cytotoxicity, THP‐1, IC50±SD
Procedure: Macrophage toxicity: Toxicity of the compounds on the differentiated host THP‐1 cells were also evaluated. As mentioned, duplicate plates of differentiated THP‐1 cells were prepared during the anti‐amastigote assay. These plates were incubated for 72 hours to differentiate, instead of replacing the growth medium with parasite‐containing medium after 48 hours. […] Blanks were growth medium without cells. The treated plates were incubated for 72 hours, followed by the addition of 50 μL of resazurin solution (0.01 % in PBS) to each well and 24‐hour incubation.

[6] = Basal cytotoxicity, resazurin assay; details: human
[7] = Leishmania major, THP-1, L. major IR‐173 intramacrophage amastigotes
[8] = differentiated THP-1 cells (macrophages)
[9] = HEK-293 cells (ATCC CRL 1573), Cytotoxicity, HEK‐293, IC50±SD, HEK‐293 cells, resazurin
[10] = L. major IR‐173 intramacrophage amastigotes

Row | SMILES | IC50 [1] | IC50 [4] | IC50 at 72 h [5, 8] | IC50 [6, 9] | also measured
1 | C[C@@H]1[C@H](O)[C@@H](C)/C=C/C=C/C=C/C=C/C=C/C=C/C=C/[C@H](O[C@@H]2O[C@H](C)[C@@H](O)[C@H](N)[C@@H]2O)C[C@@H]2O[C@](O)(C[C@@H](O)C[C@@H](O)[C@H](O)CC[C@@H](O)C[C@@H](O)CC(=O)O[C@H]1C)C[C@H](O)[C@H]2C(=O)O [AMB, amphotericin B, reference compound] | 0.02 µM | 0.03 ± 0.01 µM | – | – | IC50 [2]: 0.05 µM; IC50 [3, 7]: 0.03 µM
2 | C#CCN1C(=O)CN(/N=C/c2ccc([N+](=O)[O-])o2)C1=O [Compound 1] | – | 0.51 ± 0.05 µM | 99.94 ± 0.09 µM | – | fold selective antiparasitic action against L. donovani amastigote in the presence of mammalian cells [2]: more than 100 fold; fold higher potency than the NF antibiotics [2]: up to 30 fold; fold more specificity for donovani amastigote than AMB [2]: 20 fold
3 | CCCCCn1cc(CN2C(=O)CN(/N=C/c3ccc([N+](=O)[O-])o3)C2=O)nn1 [Compound 2] | – | 0.09 µM | > 100 µM | > 100 µM | –
4 | CCCCCCn1cc(CN2C(=O)CN(/N=C/c3ccc([N+](=O)[O-])o3)C2=O)nn1 [Compound 3] | – | 0.48 ± 0.02 µM | – | 17.9 ± 1.3 µM | –
5 | CCCCCCCn1cc(CN2C(=O)CN(/N=C/c3ccc([N+](=O)[O-])o3)C2=O)nn1 [Compound 4] | 0.18 ± 0.05 µM | 6.85 ± 0.44 µM | > 100 µM | > 100 µM | fold selective antiparasitic action against L. donovani amastigote in the presence of mammalian cells [2]: more than 100 fold; fold higher potency than the NF antibiotics [2]: up to 30 fold
6 | CCCCCCCCn1cc(CN2C(=O)CN(/N=C/c3ccc([N+](=O)[O-])o3)C2=O)nn1 [Compound 5] | – | 0.27 ± 0.02 µM | – | 31.9 ± 3.55 µM | –
7 | CCCCCCCCCn1cc(CN2C(=O)CN(/N=C/c3ccc([N+](=O)[O-])o3)C2=O)nn1 [Compound 6] | 4.68 ± 0.32 µM | 6.51 ± 1.13 µM | > 100 µM | 43.8 ± 4.13 µM | Selectivity index SI2 [2]: 12; Specificity index SpI2 [2]: 1.3; fold more specificity for donovani amastigote than AMB [2]: 3 fold
8 | CCCCCCCCCCn1cc(CN2C(=O)CN(/N=C/c3ccc([N+](=O)[O-])o3)C2=O)nn1 [Compound 7] | – | 0.34 ± 0.02 µM | > 100 µM | 67.1 ± 5.22 µM | Antipromastigote activity, IC50 ±SD, 9515 [1]: inactive; Selectivity index SI2 [2]: 11; Selectivity index SI4 [2]: > 16; IC50 [2]: 6.17 ± 0.47 µM; Selectivity index SI1 [3]: 10; Selectivity index SI3 [3]: > 15; IC50 [3, 10]: 6.72 µM; IC50 [3, 7]: < 10 µM
9 | CCCCCCCCCCCn1cc(CN2C(=O)CN(/N=C/c3ccc([N+](=O)[O-])o3)C2=O)nn1 [Compound 8] | 1.6 ± 0.08 µM | 1.24 ± 0.13 µM | > 100 µM | 20.3 ± 3.15 µM | Selectivity index SI2 [2]: 5; Selectivity index SI4 [2]: > 22; Specificity index SpI2 [2]: 0.4; IC50 [2]: 4.49 µM
10 | CCCCCCCCCCCCn1cc(CN2C(=O)CN(/N=C/c3ccc([N+](=O)[O-])o3)C2=O)nn1 [Compound 9] | – | 0.38 ± 0.01 µM | > 100 µM | – | –
11 | O=C1CN(/N=C/c2ccc([N+](=O)[O-])o2)C(=O)N1Cc1cn(CCc2ccc([N+](=O)[O-])cc2)nn1 [Compound 10] | – | 0.17 µM | – | – | IC50 at 72 h [5]: > 100 µM; IC50 [6]: 43.7 ± 3.37 µM
12 | O=C1CN(/N=C/c2ccc([N+](=O)[O-])o2)C(=O)N1Cc1cn(Cc2ccccc2)nn1 [Compound 11] | – | 0.68 ± 0.13 µM | – | 21 ± 3.25 µM | –
13 | Cc1ccc(Cn2cc(CN3C(=O)CN(/N=C/c4ccc([N+](=O)[O-])o4)C3=O)nn2)cc1 [Compound 12] | – | 0.34 ± 0.11 µM | – | 41.8 ± 1.21 µM | –
14 | CC(C)(C)c1ccc(Cn2cc(CN3C(=O)CN(/N=C/c4ccc([N+](=O)[O-])o4)C3=O)nn2)cc1 [Compound 14] | – | 0.45 ± 0.1 µM | > 100 µM | 23.2 ± 2.77 µM | Antipromastigote activity, IC50 ±SD, 9515 [1]: inactive; Selectivity index SI2 [2]: 20; Selectivity index SI4 [2]: > 86; IC50 [2]: 1.16 ± 0.02 µM
15 | O=C1CN(/N=C/c2ccc([N+](=O)[O-])o2)C(=O)N1Cc1cn(Cc2ccc(Br)cc2)nn1 [Compound 15] | 7.59 ± 0.56 µM | 0.5 ± 0.03 µM | > 100 µM | 32.7 ± 4.19 µM | Selectivity index SI1 [3]: 6; Selectivity index SI3 [3]: > 19; Specificity index SpI1 [3]: 0.1; IC50 [3, 7]: 5.14 ± 0.67 µM
16 | O=C1CN(/N=C/c2ccc([N+](=O)[O-])o2)C(=O)N1Cc1cn(Cc2ccc(Br)cc2F)nn1 [Compound 16] | – | 0.19 ± 0.01 µM | 55.7 ± 1.17 µM | 14.4 ± 0.84 µM | Selectivity index SI2 [2]: 2; Selectivity index SI4 [2]: 6; IC50 [2]: 9.21 µM; Selectivity index SI3 [3]: 9; Specificity index SpI1 [3]: 0.5; IC50 [3, 10]: 6.42 ± 0.38 µM; IC50 [3, 7]: < 10 µM
17 | O=C1CN(/N=C/c2ccc([N+](=O)[O-])o2)C(=O)N1Cc1cn(Cc2ccc(F)cc2)nn1 [Compound 17] | – | 1.05 ± 0.07 µM | – | 48.4 ± 1.88 µM | –
18 | O=C1CN(/N=C/c2ccc([N+](=O)[O-])o2)C(=O)N1Cc1cn(Cc2ccc([N+](=O)[O-])cc2)nn1 [Compound 18] | – | 0.38 µM | – | – | IC50 [6]: 60.2 ± 2.29 µM
19 | O=C1CN(/N=C/c2ccc([N+](=O)[O-])o2)C(=O)N1Cc1cn(Cc2cccc(Br)c2)nn1 [Compound 19] | 1.75 ± 0.11 µM | 0.48 µM | – | 12.6 ± 0.46 µM | –
20 | O=C1CN(/N=C/c2ccc([N+](=O)[O-])o2)C(=O)N1Cc1cn(Cc2cccc(C(F)(F)F)c2)nn1 [Compound 20] | – | 0.13 ± 0.02 µM | – | 15.8 ± 3.69 µM | –
21 | CC[C@H]1CN2CCc3cc(OC)c(OC)cc3[C@@H]2C[C@@H]1C[C@H]1NCCc2cc(OC)c(OC)cc21 [EM, Emetine, reference compound] | – | – | – | 0.01 µM | –
22 | O=C1OCCN1/N=C/c1ccc([N+](=O)[O-])o1 [FZD, furazolidone, reference compound] | 0.57 ± 0.05 µM | 0.37 ± 0.02 µM | – | – | IC50 [2]: 4.11 ± 0.78 µM; IC50 [3, 7]: 2.8 ± 0.5 µM
